# Measurements as given in article PMC13401508 (Pharmacological research, 2026).
# Where two headings read alike, the source gives them in different places.
# Experiment: Pharmacokinetic studies, single dose IV, PO, SC, IP
# Assay type: in vivo, CD1 mice
# Experimental: CD1 mice were randomly grouped to 4 groups (n=3 per group). […] Further, 20-µL blood samples were collected from a capillary in the retro-orbital plexus at pre-determined time intervals, placed into heparinized tubes, and immediately centrifuged (2500 × g, 15 min, 4 °C). The plasma was separated and kept frozen at −80 °C until analysis.
# Then the samples were vortexed for 30 s. After centrifugation at 4000 rpm for 15 min at 4 °C, the supernatant was diluted 3 times with water.5 µL of the diluted supernatant was injected into the Shimadzu LC/MS/MS system with a Phenomenex Kinetex C18 column (2.1 mm × 50 mm, 5 µm, 100 Å ). The samples were chromatographed using a gradient mobile phase consisting of 95% water (0.1% formic acid)– 95% acetonitrile (0.1% formic acid), delivered at a flow rate of 0.6 mL/min.
structure (smiles),measurement,setting,value
Cc1cc(NC(=O)CCc2nnc(-c3ccccc3)o2)c(C)cc1N [IVMT-Rx-4],Tmax,"CD1, mouse, plasma, 10 mg/kg, all non-intravenous routes",≤ 30 min
same,half-life,"CD1, mouse, plasma, ip, 10 mg/kg, IP 10 mg/kg, read-out: Plasma half-life (converted)",61.2 min
same,half-life,"CD1, mouse, plasma, iv, 3 mg/kg, IV 3 mg/kg, mean of 3 mice, read-out: T1/2 (plasma half-life) (converted)",27 min
same,half-life,"CD1, mouse, plasma, po, 10 mg/kg, PO 10 mg/kg, read-out: Plasma half-life (converted)",82.2 min
same,half-life,"CD1, mouse, plasma, sc, 10 mg/kg, SC 10 mg/kg, read-out: Plasma half-life (converted)",41.4 min
same,Maximum plasma concentration (Cmax),IP 10 mg/kg,1012 ng/mL
same,time to reach Cmax (Tmax),IP 10 mg/kg,15 min
same,time after which plasma levels became undetectable,IV 3 mg/kg,4 h
same,Maximum plasma concentration (Cmax),PO 10 mg/kg,2047 ng/mL
same,time to reach Cmax (Tmax),PO 10 mg/kg,15 min
same,time after which plasma levels became undetectable,"PO, SC and IP routes, 10 mg/kg",8 h
same,Maximum plasma concentration (Cmax),SC 10 mg/kg,1017 ng/mL
same,time to reach Cmax (Tmax),SC 10 mg/kg,30 min
